Experimental data from US9340590B2 (priority 2011, dated 2016).
Positions of bridges follow the written chain, without caps; N, C: chain ends. Non-standard residues stand in square brackets, D forms with d. Residues, ends and D or L forms follow the SMILES beside them. *: point of attachment. Pent4ynoyl = C#CCCC(=O)*; Abu = CC[C@H](N)C(=O)O

Legend:
Assay in all cases: cell-based
[1] = molecular target: hNav1.3 (Homo sapiens, UniProt Q9NY46); settings: IonWorks Quattro, use-dependent block, hNav1.3; read-out: IWQ Use Nav1.3
Sequence of hNav1.3 (Q9NY46 whole entry, looked up): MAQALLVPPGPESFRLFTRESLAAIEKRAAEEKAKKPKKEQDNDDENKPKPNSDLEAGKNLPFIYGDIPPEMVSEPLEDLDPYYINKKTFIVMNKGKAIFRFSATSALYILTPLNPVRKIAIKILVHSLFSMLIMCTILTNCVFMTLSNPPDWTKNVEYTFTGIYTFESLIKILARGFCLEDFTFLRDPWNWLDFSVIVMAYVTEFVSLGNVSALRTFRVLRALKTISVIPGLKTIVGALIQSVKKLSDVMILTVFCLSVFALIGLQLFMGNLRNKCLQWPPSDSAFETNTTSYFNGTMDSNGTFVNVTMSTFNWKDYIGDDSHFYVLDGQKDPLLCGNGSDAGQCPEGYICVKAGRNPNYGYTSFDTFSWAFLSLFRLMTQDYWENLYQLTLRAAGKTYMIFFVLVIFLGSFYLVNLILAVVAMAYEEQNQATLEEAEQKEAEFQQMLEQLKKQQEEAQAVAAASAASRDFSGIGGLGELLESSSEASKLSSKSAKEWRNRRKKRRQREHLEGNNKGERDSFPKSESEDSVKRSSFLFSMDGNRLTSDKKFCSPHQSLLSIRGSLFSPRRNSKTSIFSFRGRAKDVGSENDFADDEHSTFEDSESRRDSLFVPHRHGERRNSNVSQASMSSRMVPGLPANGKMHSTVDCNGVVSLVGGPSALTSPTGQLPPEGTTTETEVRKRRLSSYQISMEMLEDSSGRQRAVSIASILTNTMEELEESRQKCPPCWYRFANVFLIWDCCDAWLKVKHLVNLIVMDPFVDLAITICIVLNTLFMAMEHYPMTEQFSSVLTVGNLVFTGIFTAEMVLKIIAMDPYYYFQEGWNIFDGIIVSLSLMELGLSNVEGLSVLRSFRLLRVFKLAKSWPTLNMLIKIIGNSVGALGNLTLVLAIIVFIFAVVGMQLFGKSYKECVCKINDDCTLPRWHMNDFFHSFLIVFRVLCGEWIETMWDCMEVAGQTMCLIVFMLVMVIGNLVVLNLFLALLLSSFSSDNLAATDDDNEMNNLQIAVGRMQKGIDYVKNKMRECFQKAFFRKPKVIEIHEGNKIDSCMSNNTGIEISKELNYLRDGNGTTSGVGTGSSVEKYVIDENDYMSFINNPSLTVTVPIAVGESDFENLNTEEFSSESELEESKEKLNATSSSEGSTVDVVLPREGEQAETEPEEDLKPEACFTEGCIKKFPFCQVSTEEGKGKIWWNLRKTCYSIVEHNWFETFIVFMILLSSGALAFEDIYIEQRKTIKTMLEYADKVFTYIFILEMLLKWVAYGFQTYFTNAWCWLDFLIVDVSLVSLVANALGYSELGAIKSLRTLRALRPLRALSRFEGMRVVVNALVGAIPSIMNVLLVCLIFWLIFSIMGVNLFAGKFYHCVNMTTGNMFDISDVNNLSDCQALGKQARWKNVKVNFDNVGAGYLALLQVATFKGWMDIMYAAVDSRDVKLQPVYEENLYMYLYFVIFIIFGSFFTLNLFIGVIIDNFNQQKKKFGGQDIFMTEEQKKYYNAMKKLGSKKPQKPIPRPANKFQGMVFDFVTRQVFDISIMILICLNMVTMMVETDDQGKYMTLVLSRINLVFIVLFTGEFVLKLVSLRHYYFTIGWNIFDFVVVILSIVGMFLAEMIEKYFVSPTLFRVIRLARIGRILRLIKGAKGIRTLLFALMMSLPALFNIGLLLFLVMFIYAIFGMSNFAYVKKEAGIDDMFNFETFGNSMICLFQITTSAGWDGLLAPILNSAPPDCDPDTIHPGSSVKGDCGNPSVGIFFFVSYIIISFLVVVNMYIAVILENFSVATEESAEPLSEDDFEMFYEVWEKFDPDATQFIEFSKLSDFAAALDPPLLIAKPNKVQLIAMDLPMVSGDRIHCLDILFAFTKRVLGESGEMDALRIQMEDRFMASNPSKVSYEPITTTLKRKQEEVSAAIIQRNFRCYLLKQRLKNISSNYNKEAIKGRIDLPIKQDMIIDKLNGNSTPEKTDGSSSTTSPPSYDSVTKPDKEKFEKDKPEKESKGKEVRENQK

[2] = molecular target: hNav1.5 (Homo sapiens, UniProt Q14524); settings: IonWorks Quattro, use-dependent block, hNav1.5; read-out: IWQ Use Nav1.5
Sequence of hNav1.5 (Q14524 whole entry, looked up): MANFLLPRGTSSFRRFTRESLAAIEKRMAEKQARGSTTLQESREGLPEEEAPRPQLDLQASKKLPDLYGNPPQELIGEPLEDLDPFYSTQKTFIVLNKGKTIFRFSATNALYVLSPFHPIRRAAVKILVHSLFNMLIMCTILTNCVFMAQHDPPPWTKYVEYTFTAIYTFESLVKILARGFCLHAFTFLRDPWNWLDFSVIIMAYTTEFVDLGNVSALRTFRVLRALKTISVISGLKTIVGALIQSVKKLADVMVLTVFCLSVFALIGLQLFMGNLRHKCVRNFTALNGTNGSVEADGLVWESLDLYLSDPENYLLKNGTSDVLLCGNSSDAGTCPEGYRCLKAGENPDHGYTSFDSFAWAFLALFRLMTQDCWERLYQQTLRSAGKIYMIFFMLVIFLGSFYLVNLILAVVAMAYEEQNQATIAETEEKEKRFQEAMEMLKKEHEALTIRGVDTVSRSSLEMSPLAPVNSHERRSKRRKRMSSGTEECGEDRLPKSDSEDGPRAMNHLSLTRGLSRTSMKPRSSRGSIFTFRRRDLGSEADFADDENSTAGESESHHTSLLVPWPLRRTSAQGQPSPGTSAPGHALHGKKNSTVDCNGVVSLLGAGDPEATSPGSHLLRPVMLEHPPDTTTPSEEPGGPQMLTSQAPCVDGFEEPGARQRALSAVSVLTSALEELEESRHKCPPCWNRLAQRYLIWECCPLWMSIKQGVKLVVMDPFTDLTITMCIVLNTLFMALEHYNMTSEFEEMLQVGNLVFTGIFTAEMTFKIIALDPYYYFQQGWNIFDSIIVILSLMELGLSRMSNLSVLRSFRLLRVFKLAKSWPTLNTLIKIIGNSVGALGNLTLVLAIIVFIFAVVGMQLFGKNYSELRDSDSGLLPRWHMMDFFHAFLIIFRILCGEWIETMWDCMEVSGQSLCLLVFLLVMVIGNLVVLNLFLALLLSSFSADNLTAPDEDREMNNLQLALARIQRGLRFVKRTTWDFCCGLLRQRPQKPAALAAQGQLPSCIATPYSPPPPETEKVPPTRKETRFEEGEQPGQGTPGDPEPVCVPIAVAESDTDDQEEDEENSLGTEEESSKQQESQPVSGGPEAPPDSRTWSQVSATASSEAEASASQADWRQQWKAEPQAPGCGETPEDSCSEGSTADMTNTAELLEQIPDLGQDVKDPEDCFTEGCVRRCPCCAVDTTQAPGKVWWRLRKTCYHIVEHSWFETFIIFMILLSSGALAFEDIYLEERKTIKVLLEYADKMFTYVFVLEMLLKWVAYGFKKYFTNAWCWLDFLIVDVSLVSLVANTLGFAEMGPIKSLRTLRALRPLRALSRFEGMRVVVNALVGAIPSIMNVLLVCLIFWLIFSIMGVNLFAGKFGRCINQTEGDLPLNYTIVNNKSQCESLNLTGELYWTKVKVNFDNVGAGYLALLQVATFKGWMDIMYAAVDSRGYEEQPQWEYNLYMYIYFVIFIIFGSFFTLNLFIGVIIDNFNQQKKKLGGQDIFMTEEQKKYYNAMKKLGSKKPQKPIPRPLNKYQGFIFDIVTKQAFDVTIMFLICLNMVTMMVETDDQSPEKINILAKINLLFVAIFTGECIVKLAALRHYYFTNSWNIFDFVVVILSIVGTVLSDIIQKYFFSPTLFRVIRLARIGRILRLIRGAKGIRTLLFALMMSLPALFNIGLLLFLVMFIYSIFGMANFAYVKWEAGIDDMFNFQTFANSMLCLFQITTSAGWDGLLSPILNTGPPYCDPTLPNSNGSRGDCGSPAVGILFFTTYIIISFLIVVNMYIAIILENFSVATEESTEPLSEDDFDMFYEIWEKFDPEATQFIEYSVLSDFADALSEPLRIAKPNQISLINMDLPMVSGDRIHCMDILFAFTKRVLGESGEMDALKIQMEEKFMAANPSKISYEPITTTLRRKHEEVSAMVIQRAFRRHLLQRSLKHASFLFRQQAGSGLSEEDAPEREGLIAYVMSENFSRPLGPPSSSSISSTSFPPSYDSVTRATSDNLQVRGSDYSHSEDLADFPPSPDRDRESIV

[3] = molecular target: hNav1.7 (Homo sapiens, UniProt Q15858); format: cell-based; settings: IonWorks Quattro, use-dependent block, hNav1.7; read-out: IWQ Use Nav1.7

| SMILES | IC50 [1] | IC50 [2] | IC50 [3] |
| --- | --- | --- | --- |
| C#CCCC(=O)N[C@@H](CC(=O)O)C(=O)N[C@H]1CSSC[C@@H]2NC(=O)[C@@H]3CSSC[C@@H](C(=O)N[C@@H](CCCCN)C(=O)N[C@@H](Cc4ccc(O)cc4)C(=O)N[C@H](C(=O)N[C@@H](Cc4ccccc4)C(N)=O)C(C)C)NC(=O)[C@H](Cc4c[nH]c5ccccc45)NC(=O)[C@H](CCCNC(=N)N)NC(=O)[C@H](Cc4c[nH]cn4)NC(=O)[C@H]([C@@H](C)O)NC(=O)[C@H](CCCNC(=N)N)NC(=O)[C@H](CO)NC(=O)[C@H](CSSC[C@H](NC(=O)[C@H](CCCCN)NC(=O)[C@H](CCCNC(=N)N)NC(=O)[C@H](CC(C)C)NC(=O)[C@H](CC)NC(=O)CNC(=O)[C@H](CC(C)C)NC1=O)C(=O)N[C@@H]([C@@H](C)CC)C(=O)N1CCC[C@H]1C(=O)N[C@@H](CC(=O)O)C(=O)N[C@@H](CC)C(=O)N[C@@H](CC(=O)O)C(=O)N[C@@H](CCCCN)C(=O)N3)NC(=O)[C@H](C(C)C)NC(=O)[C@H](CC(C)C)NC(=O)[C@H](CC(N)=O)NC(=O)[C@@H]1CCCN1C(=O)[C@H](CCCNC(=N)N)NC2=O [compound 807] (Pent4ynoyl-DCLG[Abu]LRKCIPD[Abu]DKCCRPNLVCSRTHRWCKYVF-NH2; disulfide 2-17, 9-23, 16-30) | 900 nM | 36800 nM | 540 nM |
| C#CCCC(=O)NCCCC[C@@H]1NC(=O)[C@H](CC(=O)O)NC(=O)[C@@H]2CCCN2C(=O)[C@H]([C@@H](C)CC)NC(=O)[C@@H]2CSSC[C@@H]3NC(=O)[C@H](C(C)C)NC(=O)[C@H](CC(C)C)NC(=O)[C@H](CC(N)=O)NC(=O)[C@@H]4CCCN4C(=O)[C@H](CCCNC(=N)N)NC(=O)[C@H](CSSC[C@H](NC(=O)[C@@H](N)CC(=O)O)C(=O)N[C@@H](CC(C)C)C(=O)NCC(=O)N[C@@H](CC)C(=O)N[C@@H](CC(C)C)C(=O)N[C@@H](CCCNC(=N)N)C(=O)N[C@@H](CCCCN)C(=O)N2)NC(=O)[C@H](CSSC[C@@H](C(=O)N[C@@H](CCCCN)C(=O)N[C@@H](Cc2ccc(O)cc2)C(=O)N[C@H](C(=O)N[C@@H](Cc2ccccc2)C(N)=O)C(C)C)NC(=O)[C@H](Cc2c[nH]c4ccccc24)NC(=O)[C@H](CCC(=O)O)NC(=O)[C@H](Cc2c[nH]cn2)NC(=O)[C@H]([C@@H](C)O)NC(=O)[C@H](CCCNC(=N)N)NC(=O)[C@H](CO)NC3=O)NC(=O)[C@H](CCCCN)NC(=O)[C@H](CC(=O)O)NC1=O [compound 808] (H-DCLG[Abu]LRKCIPDK(Pent4ynoyl)DKCCRPNLVCSRTHEWCKYVF-NH2; disulfide 2-17, 9-23, 16-30) | 4100 nM | > 5000 nM | 1800 nM |
| CC[C@H](C)[C@@H]1NC(=O)[C@@H]2CSSC[C@@H]3NC(=O)[C@H](C(C)C)NC(=O)[C@H](CC(C)C)NC(=O)[C@H](CC(N)=O)NC(=O)[C@@H]4CCCN4C(=O)[C@H](CCCNC(=N)N)NC(=O)[C@H](CSSC[C@H](NC(=O)[C@H](CC(=O)O)NC(=O)[C@H](CO)NC(=O)CN)C(=O)N[C@@H](CC(C)C)C(=O)NCC(=O)N[C@@H](C)C(=O)N[C@@H](Cc4ccccc4)C(=O)N[C@@H](CCCNC(=N)N)C(=O)N[C@@H](CCCCN)C(=O)N2)NC(=O)[C@H](CSSC[C@@H](C(=O)N[C@@H](CCCCN)C(=O)N[C@@H](Cc2ccc(O)cc2)C(=O)N[C@H](C(=O)N[C@@H](Cc2ccccc2)C(N)=O)C(C)C)NC(=O)[C@H](Cc2c[nH]c4ccccc24)NC(=O)[C@H](CCCNC(=N)N)NC(=O)[C@H](Cc2c[nH]cn2)NC(=O)[C@H]([C@@H](C)O)NC(=O)[C@H](CCCNC(=N)N)NC(=O)[C@H](CO)NC3=O)NC(=O)[C@H](CCCCN)NC(=O)[C@H](CC(=O)O)NC(=O)[C@H](CC(N)=O)NC(=O)[C@H](CC(=O)O)NC(=O)[C@@H]2CCCN2C1=O [compound 811] (H-GSDCLGAFRKCIPDNDKCCRPNLVCSRTHRWCKYVF-NH2; disulfide 4-19, 11-25, 18-32) | 300 nM | > 5000 nM | 300 nM |
| CC[C@H](C)[C@@H]1NC(=O)[C@@H]2CSSC[C@@H]3NC(=O)[C@H](C(C)C)NC(=O)[C@H](CC(C)C)NC(=O)[C@H](CC(N)=O)NC(=O)[C@@H]4CCCN4C(=O)[C@H](CCCNC(=N)N)NC(=O)[C@H](CSSC[C@H](NC(=O)[C@H](CC(=O)O)NC(=O)[C@H](CO)NC(=O)CN)C(=O)N[C@@H](CC(C)C)C(=O)NCC(=O)N[C@@H](C)C(=O)N[C@@H](CC(C)C)C(=O)N[C@@H](CCCNC(=N)N)C(=O)N[C@@H](CCCCN)C(=O)N2)NC(=O)[C@H](CSSC[C@@H](C(=O)N[C@@H](CCCCN)C(=O)N[C@@H](Cc2ccc(O)cc2)C(=O)N[C@H](C(=O)N[C@@H](Cc2ccccc2)C(N)=O)C(C)C)NC(=O)[C@H](Cc2c[nH]c4ccccc24)NC(=O)[C@H](CCCNC(=N)N)NC(=O)[C@H](Cc2c[nH]cn2)NC(=O)[C@H]([C@@H](C)O)NC(=O)[C@H](CCCNC(=N)N)NC(=O)[C@H](CO)NC3=O)NC(=O)[C@H](CCCCN)NC(=O)[C@H](CC(=O)O)NC(=O)[C@H](CC(N)=O)NC(=O)[C@H](CC(=O)O)NC(=O)[C@@H]2CCCN2C1=O [compound 812] (H-GSDCLGALRKCIPDNDKCCRPNLVCSRTHRWCKYVF-NH2; disulfide 4-19, 11-25, 18-32) | 200 nM | > 5000 nM | 200 nM |
| CC[C@H](C)[C@@H]1NC(=O)[C@@H]2CSSC[C@@H]3NC(=O)[C@H](C(C)C)NC(=O)[C@H](CC(C)C)NC(=O)[C@H](CC(N)=O)NC(=O)[C@@H]4CCCN4C(=O)[C@H](CCCNC(=N)N)NC(=O)[C@H](CSSC[C@H](NC(=O)[C@@H](N)CC(=O)O)C(=O)N[C@@H](CC(C)C)C(=O)NCC(=O)N[C@@H](C)C(=O)N[C@@H](Cc4ccccc4)C(=O)N[C@@H](CCCNC(=N)N)C(=O)N[C@@H](CCCCN)C(=O)N2)NC(=O)[C@H](CSSC[C@@H](C(=O)N[C@@H](CCCCN)C(=O)N[C@@H](Cc2ccc(O)cc2)C(=O)N[C@H](C(=O)N[C@@H](Cc2ccccc2)C(=O)N[C@@H](Cc2c[nH]c4ccccc24)C(=O)O)C(C)C)NC(=O)[C@H](Cc2c[nH]c4ccccc24)NC(=O)[C@H](CCCNC(=N)N)NC(=O)[C@H](Cc2c[nH]cn2)NC(=O)[C@H]([C@@H](C)O)NC(=O)[C@H](CCCNC(=N)N)NC(=O)[C@H](CO)NC3=O)NC(=O)[C@H](CCCCN)NC(=O)[C@H](CC(=O)O)NC(=O)[C@H](CC(N)=O)NC(=O)[C@H](CC(=O)O)NC(=O)[C@@H]2CCCN2C1=O [compound 813] (H-DCLGAFRKCIPDNDKCCRPNLVCSRTHRWCKYVFW-OH; disulfide 2-17, 9-23, 16-30) | > 5000 nM | > 5000 nM | > 5000 nM |
| CC[C@H](C)[C@@H]1NC(=O)[C@@H]2CSSC[C@@H]3NC(=O)[C@H](C(C)C)NC(=O)[C@H](CC(C)C)NC(=O)[C@H](CC(N)=O)NC(=O)[C@@H]4CCCN4C(=O)[C@H](CCCNC(=N)N)NC(=O)[C@H](CSSC[C@H](NC(=O)[C@@H](N)CC(=O)O)C(=O)N[C@@H](CC(C)C)C(=O)NCC(=O)N[C@@H](C)C(=O)N[C@@H](CC(C)C)C(=O)N[C@@H](CCCNC(=N)N)C(=O)N[C@@H](CCCCN)C(=O)N2)NC(=O)[C@H](CSSC[C@@H](C(=O)N[C@@H](CCCCN)C(=O)N[C@@H](Cc2ccc(O)cc2)C(=O)N[C@H](C(=O)N[C@@H](Cc2ccccc2)C(=O)N[C@@H](Cc2c[nH]c4ccccc24)C(=O)O)C(C)C)NC(=O)[C@H](Cc2c[nH]c4ccccc24)NC(=O)[C@H](CCCNC(=N)N)NC(=O)[C@H](Cc2c[nH]cn2)NC(=O)[C@H]([C@@H](C)O)NC(=O)[C@H](CCCNC(=N)N)NC(=O)[C@H](CO)NC3=O)NC(=O)[C@H](CCCCN)NC(=O)[C@H](CC(=O)O)NC(=O)[C@H](CC(N)=O)NC(=O)[C@H](CC(=O)O)NC(=O)[C@@H]2CCCN2C1=O [compound 814] (H-DCLGALRKCIPDNDKCCRPNLVCSRTHRWCKYVFW-OH; disulfide 2-17, 9-23, 16-30) | 600 nM | > 5000 nM | 600 nM |
